Data reported in ChEMBL document CHEMBL3352118, “Inhibitors of Mutant IDH for the Treatment of Cancer” (ACS Med Chem Lett, 2014).

Molecular target: Isocitrate dehydrogenase [NADP] cytoplasmic (Homo sapiens, UniProt O75874, R132H)
Assay: Inhibition of IDH1 R132H mutant (unknown origin) using a-ketoglutarate as substrate by fluorescence biochemical assay

Chain of Isocitrate dehydrogenase [NADP] cytoplasmic (O75874 2-414 R132H limits assumed): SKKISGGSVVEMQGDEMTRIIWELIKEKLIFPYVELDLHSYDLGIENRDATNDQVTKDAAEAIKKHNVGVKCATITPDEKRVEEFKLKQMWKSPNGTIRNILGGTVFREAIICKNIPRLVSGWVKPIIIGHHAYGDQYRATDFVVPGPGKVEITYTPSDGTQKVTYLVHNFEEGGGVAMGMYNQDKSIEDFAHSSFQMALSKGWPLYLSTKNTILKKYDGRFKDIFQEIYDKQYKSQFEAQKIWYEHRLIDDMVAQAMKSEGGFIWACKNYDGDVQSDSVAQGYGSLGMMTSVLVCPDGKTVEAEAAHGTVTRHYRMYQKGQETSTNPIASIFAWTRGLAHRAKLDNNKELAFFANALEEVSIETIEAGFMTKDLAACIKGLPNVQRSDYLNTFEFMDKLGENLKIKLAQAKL

Compound	IC50
C[C@H](Nc1nccc(N2C(=O)OC[C@]2(C)C2CC2)n1)c1ccc(CN2CCC(O)(C(F)(F)F)CC2)cc1F	< 15.9 nM
C[C@H](Nc1nccc(N2C(=O)OC[C@]2(C)C2CC2)n1)c1ccc(CN2CCC(N)CC2)c(F)c1	194 nM
